# Assay results reported in patent US9737504B2, “Dihydroorotic and acid dehydrogenase inhibitor” (NAI INC., priority 2012, dated 2017).
# Read-outs that look alike come from different tables or passages of the source.
# Tests used:
# [1] = tested on: SF-539; assay: JFCR39 cancer cell growth inhibition test, SF-539; assay type: cell-based; conditions: Homo sapiens; SF-539, CNS (Central Nervous Systems)
# [2] = tested on: DU-145; assay: JFCR39 cancer cell growth inhibition test, DU-145; assay type: cell-based; conditions: Homo sapiens; DU-145, xPg (Prostate)
# [3] = tested on: SNB-78; assay: JFCR39 cancer cell growth inhibition test, SNB-78; assay type: cell-based; conditions: Homo sapiens; SNB-78, CNS (Central Nervous Systems)
# [4] = tested on: HCT-15; assay: JFCR39 cancer cell growth inhibition test, HCT-15; assay type: cell-based; conditions: Homo sapiens; HCT-15, Co (Colon)
# [5] = target: human DHOD (Homo sapiens, UniProt Q02127); assay: Measurement of DHOD inhibitory activity (DCIP reduction, end point assay); assay type: biochemical; conditions: read-out: DHOD inhibition rate (%) 100 nM; 100 nM compound
# [6] = tested on: OVCAR-5; assay: JFCR39 cancer cell growth inhibition test, OVCAR-5; assay type: cell-based; conditions: Homo sapiens; OVCAR-5, Ov (Ovarian)
# [7] = tested on: SK-OV-3; assay: JFCR39 cancer cell growth inhibition test, SK-OV-3; assay type: cell-based; conditions: Homo sapiens; SK-OV-3, Ov (Ovarian)
# [8] = tested on: MKN28; assay: JFCR39 cancer cell growth inhibition test, MKN28; assay type: cell-based; conditions: Homo sapiens, MKN-28; MKN28, St (Stomac)
# [9] = tested on: SF-295; assay: JFCR39 cancer cell growth inhibition test, SF-295; assay type: cell-based; conditions: Homo sapiens; SF-295, CNS (Central Nervous Systems)
# [10] = tested on: U251; assay: JFCR39 cancer cell growth inhibition test, U251; assay type: cell-based; conditions: Homo sapiens, U-251; U251, CNS (Central Nervous Systems)
# [11] = tested on: MKN7; assay: JFCR39 cancer cell growth inhibition test, MKN7; assay type: cell-based; conditions: Homo sapiens, MKN-7; MKN7, St (Stomac)
# [12] = tested on: NCI-H23; assay: JFCR39 cancer cell growth inhibition test, NCI-H23; assay type: cell-based; conditions: Homo sapiens; NCI-H23, Lu (Lung)
# [13] = tested on: DMS273; assay: JFCR39 cancer cell growth inhibition test, DMS273; assay type: cell-based; conditions: Homo sapiens, DMS-273; DMS273, Lu (Lung)
# [14] = tested on: OVCAR-4; assay: JFCR39 cancer cell growth inhibition test, OVCAR-4; assay type: cell-based; conditions: Homo sapiens; OVCAR-4, Ov (Ovarian)
# [15] = tested on: HDF cells (human dermal fibroblast cells); assay: Inhibitory effect on HDF cells, control vs hypoxic and subnutritional conditions; assay type: cell-based; conditions: for IC50: Homo sapiens, HDF normal skin cells
# Method: (§1) For these reasons, cells of colorectal and pancreatic cancers, each being regarded as intractable, were used to test the inhibitory effect of compounds under hypoxic and subnutritional conditions. Moreover, the same test was also performed on normal skin cells.
# The cells used were two types of cancer cells, i.e., DLD-1 cells (human colorectal cancer cells) and Panc-1 cells (human pancreatic cells), as well as HDF cells (human dermal fibroblast cells).
# [16] = tested on: NCI-H460; assay: JFCR39 cancer cell growth inhibition test, NCI-H460; assay type: cell-based; conditions: Homo sapiens; NCI-H460, Lu (Lung)
# [17] = tested on: A549; assay: JFCR39 cancer cell growth inhibition test, A549; assay type: cell-based; conditions: Homo sapiens; A549, Lu (Lung)
# [18] = tested on: HCT-116; assay: JFCR39 cancer cell growth inhibition test, HCT-116; assay type: cell-based; conditions: Homo sapiens; HCT-116, Co (Colon)
# [19] = tested on: ACHN; assay: JFCR39 cancer cell growth inhibition test, ACHN; assay type: cell-based; conditions: Homo sapiens, Re (Renal)
# [20] = tested on: DMS114; assay: JFCR39 cancer cell growth inhibition test, DMS114; assay type: cell-based; conditions: Homo sapiens, DMS-114; DMS114, Lu (Lung)
# [21] = tested on: L0X-IMVI; assay: JFCR39 cancer cell growth inhibition test, L0X-IMVI; assay type: cell-based; conditions: Homo sapiens, Me (Melanoma)
# [22] = tested on: KM-12; assay: JFCR39 cancer cell growth inhibition test, KM-12; assay type: cell-based; conditions: Homo sapiens, KM12; KM-12, Co (Colon)
# [23] = tested on: MCF-7; assay: JFCR39 cancer cell growth inhibition test, MCF-7; assay type: cell-based; conditions: Homo sapiens, MCF7; MCF-7, Br (Breast)
# [24] = tested on: MKN1; assay: JFCR39 cancer cell growth inhibition test, MKN1; assay type: cell-based; conditions: Homo sapiens, MKN-1; MKN1, St (Stomac)
# [25] = tested on: MDA-MB-231; assay: JFCR39 cancer cell growth inhibition test, MDA-MB-231; assay type: cell-based; conditions: Homo sapiens; MDA-MB-231, Br (Breast)
# [26] = tested on: Panc-1 cells (human pancreatic cells); assay: Inhibitory effect on Panc-1 cells, control vs hypoxic and subnutritional conditions; assay type: cell-based; conditions: for IC50: Homo sapiens
# Method: as §1
# The cells used were two types of cancer cells, i.e., DLD-1 cells (human colorectal cancer cells) and Panc-1 cells (human pancreatic cells), as well as HDF cells (human dermal fibroblast cells). Culture conditions were set as follows: 21% oxygen with glucose and […] (10% FBS) for the control group, and 1% oxygen without glucose and […] (10% FBS) for the hypoxic and subnutritional group. The results obtained are shown in Tables 3, 4 and 5, as well as FIGS. 1, 2 and 3.
# [27] = tested on: PC-3; assay: JFCR39 cancer cell growth inhibition test, PC-3; assay type: cell-based; conditions: Homo sapiens; PC-3, xPg (Prostate)
# [28] = tested on: BSY-1; assay: JFCR39 cancer cell growth inhibition test, BSY-1; assay type: cell-based; conditions: Homo sapiens; BSY-1, Br (Breast)
# [29] = tested on: MKN74; assay: JFCR39 cancer cell growth inhibition test, MKN74; assay type: cell-based; conditions: Homo sapiens, MKN-74; MKN74, St (Stomac)
# [30] = tested on: SF-268; assay: JFCR39 cancer cell growth inhibition test, SF-268; assay type: cell-based; conditions: Homo sapiens; SF-268, CNS (Central Nervous Systems)
# [31] = tested on: OVCAR-3; assay: JFCR39 cancer cell growth inhibition test, OVCAR-3; assay type: cell-based; conditions: Homo sapiens; OVCAR-3, Ov (Ovarian)
# [32] = tested on: HT-29; assay: JFCR39 cancer cell growth inhibition test, HT-29; assay type: cell-based; conditions: Homo sapiens; HT-29, Co (Colon)
# [33] = tested on: St-4; assay: JFCR39 cancer cell growth inhibition test, St-4; assay type: cell-based; conditions: Homo sapiens; St-4, St (Stomac)
# [34] = tested on: RXF-631L; assay: JFCR39 cancer cell growth inhibition test, RXF-631L; assay type: cell-based; conditions: Homo sapiens, Re (Renal)
# [35] = tested on: SNB-75; assay: JFCR39 cancer cell growth inhibition test, SNB-75; assay type: cell-based; conditions: Homo sapiens; SNB-75, CNS (Central Nervous Systems)
# Sequence of human DHOD (Q02127 whole entry): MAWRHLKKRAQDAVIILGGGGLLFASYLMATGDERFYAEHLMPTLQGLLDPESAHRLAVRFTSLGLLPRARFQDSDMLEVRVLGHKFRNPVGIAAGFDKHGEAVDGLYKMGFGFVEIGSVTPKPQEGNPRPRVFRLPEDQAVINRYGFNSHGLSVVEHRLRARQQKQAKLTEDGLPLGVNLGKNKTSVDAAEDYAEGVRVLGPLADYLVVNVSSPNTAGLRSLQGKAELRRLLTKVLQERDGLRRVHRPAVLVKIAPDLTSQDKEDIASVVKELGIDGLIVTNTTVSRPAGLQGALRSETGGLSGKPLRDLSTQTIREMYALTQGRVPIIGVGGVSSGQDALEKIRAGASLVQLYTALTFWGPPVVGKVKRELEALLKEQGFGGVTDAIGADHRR
smiles,measurement,setting,value
"C/C(=C\Cc1c(O)c(Cl)c(C)c(C=O)c1O)CC/C=C(\C)[C@@H]1CC(=O)C(C)(C)O1 (racemic) [Ascofuranone, dl-5-Chloro-2,4-dihydroxy-6-methyl-3-[(2E,6E)-3-methyl-7-(3,3-dimethyl-4-oxo-2-oxacyclopentyl)-2,6-octadienyl]benzaldehyde]",GI50,[1],1.7 µM
same,GI50,[2],11 µM
same,GI50,[3],23 µM
same,GI50,[4],1.3 µM
same,inhibition at 0.1 µM,[5],95%
same,GI50,[6],7.6 µM
same,GI50,[7],13 µM
same,GI50,[8],9.7 µM
same,GI50,[9],5.3 µM
same,GI50,[10],1.5 µM
same,GI50,[11],15 µM
same,GI50,[12],15 µM
same,GI50,[13],5.9 µM
same,GI50,[14],5.9 µM
same,Selectivity = 21% glc(+)gln(+) IC50/1% glc(−)gln(−) IC50,[15]; HDF,>63
same,IC50,"[15]; read-out: IC50 [μM] 1% O2 glc(−)gln(−), 1% O2 glc(−)gln(−)",1.6 µM
same,IC50,"[15]; 21% O2 glc(+)gln(+), read-out: IC50 [μM] 21% O2 glc(+)gln(+)",> 100 µM
same,GI50,[16],2 µM
same,GI50,[17],7.6 µM
same,GI50,[18],5.1 µM
same,GI50,[19],10 µM
same,GI50,[20],19 µM
same,GI50,[21],2.8 µM
same,GI50,[22],9.3 µM
same,GI50,[23],9 µM
same,GI50,[24],14 µM
same,GI50,[25],7.4 µM
same,IC50,"[26]; read-out: IC50 [μM] 1% O2 glc(−)gln(−), Panc-1, 1% O2 glc(−)gln(−)",1.4 µM
same,IC50,"[26]; Panc-1, 21% O2 glc(+)gln(+), read-out: IC50 [μM] 21% O2 glc(+)gln(+)",> 100 µM
same,Selectivity = 21% glc(+)gln(+) IC50/1% glc(−)gln(−) IC50,[26]; Panc-1,>71
same,GI50,[27],13 µM
same,GI50,[28],16 µM
same,GI50,[29],13 µM
same,GI50,[30],7 µM
same,GI50,[31],8 µM
same,GI50,[32],6.6 µM
same,GI50,[33],14 µM
same,GI50,[34],12 µM
same,GI50,[35],23 µM
